Reference: patent US3974268A, “Bone-seeking technetium-99m imidodiphosphonate complex” (priority 1975, dated 1976)

Columns and labels:
[1] = Organ distribution of 99mTc-IDP in rabbits with 85Sr administered simultaneously (Table 1); format: in vivo, New Zealand adult albino rabbits; conditions: for % Dose/1% Body Weight, AVG BONE: mean of femur, tibia, spine, pelvis
Description: The organ distribution of the ^99m Tc imidodiphosphonate (IDP) was studied after I.V. injection of 50-200 μCi containing 0.1-0.2 mg of IDP per animal in New Zealand adult albino rabbits weighing 3.5-5 kg and compared with 10-20 μCi of ^85 Sr administered simultaneously as a biological standard. The methods of tissue assay used were those described in the Subramanian et al. references, supra. These animals were sacrificed at various time intervals from 15 min. to 24 hrs. after injection. […] A whole body image of the dog was obtained in the right lateral projection 4 hours after intravenous injection of 5 mCi of ^99m Tc-IDP using the Ohio Nuclear Model 100 area scan camera fitted with a 140 kev high sensitivity parallel hole collimator, with the data density setting of 200.
Table 1 contains biological distribution data of ^99m Tc-IDP in rabbits with ^85 Sr used simultaneously. The numbers shown in parenthesis after the time of study is the number of animals used per time interval. The values for each organ shown are the averages for each group of animals. The bone concentration shown as % dose / 1% body weight is the mean value of individual average of concentrations in four types of bone; the femur, tibia, spine and pelvis. An overall mean concentration of the four types of bone was calculated for each animal and then the average of these mean values were determined. Similarly the mean values for bone/organ ratios were calculated for each group.
In order to compensate for biologic variation, bone agents are best studied by comparing the quantitative uptake of the new compound with simultaneously administered ^85 Sr as a means of normalization. In comparing several ^99m Tc labeled agents between each other one should not only compare the whole organ uptake of individual compounds but also the ratios of their concentrations with ^85 Sr, especially so in comparing bone uptakes. Due to regional variation in bone uptake with the skeleton it is difficult to correctly estimate whole body bone uptake quantitatively. Nevertheless, the data for single whole bones (femur and tibia) is useful. […] This concentration change over serial time intervals may be due to the metabolic breakdown of the compound at the bone mineral surface with the ^99m Tc complex being more labile, while we known the biological half life of ^85 Sr is prolonged. Even at the later time intervals than 2 hours, ^99m Tc-IDP concentration in bone is at least 20-25% higher than the other Tc complexes (Table 2). The soft tissue concentrations of all these complexes are lower, especially that of the muscle, than ^85 Sr. The liver concentration is somewhat higher than ^85 Sr for some ^99m Tc complexes. This should not be a problem because the total liver concentration is relatively low.

[2] = in words, stated as known; cited from earlier work
[3] = 15 min after I.V. injection, mean of 6 rabbits
[4] = 1 hour after I.V. injection, mean of 6 rabbits
[5] = 2 hours after I.V. injection, mean of 9 rabbits
[6] = 4 hours after I.V. injection, mean of 9 rabbits
[7] = 24 hours after I.V. injection, mean of 7 rabbits

[85Sr] [85Sr]
% Dose in Whole Organ, BLOOD [1, 3]: 16.1 % Dose
% Dose in Whole Organ, KIDNEY [1, 3]: 1.27 % Dose
% Dose in Whole Organ, LIVER [1, 3]: 2.13 % Dose
% Dose in Whole Organ, MARROW [1, 3]: 0.903 % Dose
% Dose in Whole Organ, MUSCLE [1, 3]: 15.6 % Dose
% Dose in Whole Organ, URINE [1, 3]: 4.94 % Dose
% Dose in Whole Organ, WHOLE FEMUR [1, 3]: 0.741 % Dose
% Dose in Whole Organ, WHOLE TIBIA [1, 3]: 0.540 % Dose
% Dose/1% Body Weight, BLOOD [1, 3]: 2.29 % Dose/1% Body Weight
% Dose/1% Body Weight, FEMUR [1, 3]: 3.41 % Dose/1% Body Weight
% Dose/1% Body Weight, KIDNEY [1, 3]: 2.68 % Dose/1% Body Weight
% Dose/1% Body Weight, LG INT [1, 3]: 1.79 % Dose/1% Body Weight
% Dose/1% Body Weight, LIVER [1, 3]: 0.692 % Dose/1% Body Weight
% Dose/1% Body Weight, MARROW [1, 3]: 0.410 % Dose/1% Body Weight
% Dose/1% Body Weight, MUSCLE [1, 3]: 0.363 % Dose/1% Body Weight
% Dose/1% Body Weight, PELVIS [1, 3]: 5.06 % Dose/1% Body Weight
% Dose/1% Body Weight, SM INT [1, 3]: 1.23 % Dose/1% Body Weight
% Dose/1% Body Weight, SPINE [1, 3]: 3.76 % Dose/1% Body Weight
% Dose/1% Body Weight, TIBIA [1, 3]: 3.02 % Dose/1% Body Weight
RATIOS BONE/BLOOD [1, 3]: 1.71
RATIOS BONE/MARROW [1, 3]: 9.84
RATIOS BONE/MUSCLE [1, 3]: 10.6
% Dose/1% Body Weight, AVG BONE ([1]; 15 min after I.V. injection, 6 rabbits): 3.82 % Dose/1% Body Weight
% Dose in Whole Organ, BLOOD [1, 4]: 8.17 % Dose
% Dose in Whole Organ, KIDNEY [1, 4]: 0.938 % Dose
% Dose in Whole Organ, LIVER [1, 4]: 1.58 % Dose
% Dose in Whole Organ, MARROW [1, 4]: 0.817 % Dose
% Dose in Whole Organ, MUSCLE [1, 4]: 9.55 % Dose
% Dose in Whole Organ, URINE [1, 4]: 8.96 % Dose
% Dose in Whole Organ, WHOLE FEMUR [1, 4]: 1.27 % Dose
% Dose in Whole Organ, WHOLE TIBIA [1, 4]: 1.03 % Dose
% Dose/1% Body Weight, BLOOD [1, 4]: 1.17 % Dose/1% Body Weight
% Dose/1% Body Weight, FEMUR [1, 4]: 5.23 % Dose/1% Body Weight
% Dose/1% Body Weight, KIDNEY [1, 4]: 1.54 % Dose/1% Body Weight
% Dose/1% Body Weight, LG INT [1, 4]: 0.961 % Dose/1% Body Weight
% Dose/1% Body Weight, LIVER [1, 4]: 0.489 % Dose/1% Body Weight
% Dose/1% Body Weight, MARROW [1, 4]: 0.382 % Dose/1% Body Weight
% Dose/1% Body Weight, MUSCLE [1, 4]: 0.222 % Dose/1% Body Weight
% Dose/1% Body Weight, PELVIS [1, 4]: 5.47 % Dose/1% Body Weight
% Dose/1% Body Weight, SM INT [1, 4]: 0.654 % Dose/1% Body Weight
% Dose/1% Body Weight, SPINE [1, 4]: 5.82 % Dose/1% Body Weight
% Dose/1% Body Weight, TIBIA [1, 4]: 4.67 % Dose/1% Body Weight
RATIOS BONE/BLOOD [1, 4]: 4.53
RATIOS BONE/MARROW [1, 4]: 13.9
RATIOS BONE/MUSCLE [1, 4]: 23.9
% Dose/1% Body Weight, AVG BONE ([1]; 1 hour after I.V. injection, 6 rabbits): 5.30 % Dose/1% Body Weight
% Dose in Whole Organ, BLOOD [1, 5]: 5.19 % Dose
% Dose in Whole Organ, KIDNEY [1, 5]: 0.638 % Dose
% Dose in Whole Organ, LIVER [1, 5]: 0.947 % Dose
% Dose in Whole Organ, MARROW [1, 5]: 0.499 % Dose
% Dose in Whole Organ, MUSCLE [1, 5]: 7.96 % Dose
% Dose in Whole Organ, URINE [1, 5]: 16.6 % Dose
% Dose in Whole Organ, WHOLE FEMUR [1, 5]: 1.67 % Dose
% Dose in Whole Organ, WHOLE TIBIA [1, 5]: 1.34 % Dose
% Dose/1% Body Weight, BLOOD [1, 5]: 0.742 % Dose/1% Body Weight
% Dose/1% Body Weight, FEMUR [1, 5]: 6.84 % Dose/1% Body Weight
% Dose/1% Body Weight, KIDNEY [1, 5]: 1.14 % Dose/1% Body Weight
% Dose/1% Body Weight, LG INT [1, 5]: 0.762 % Dose/1% Body Weight
% Dose/1% Body Weight, LIVER [1, 5]: 0.357 % Dose/1% Body Weight
% Dose/1% Body Weight, MARROW [1, 5]: 0.227 % Dose/1% Body Weight
% Dose/1% Body Weight, MUSCLE [1, 5]: 0.186 % Dose/1% Body Weight
% Dose/1% Body Weight, PELVIS [1, 5]: 7.35 % Dose/1% Body Weight
% Dose/1% Body Weight, SM INT [1, 5]: 0.669 % Dose/1% Body Weight
% Dose/1% Body Weight, SPINE [1, 5]: 8.05 % Dose/1% Body Weight
% Dose/1% Body Weight, TIBIA [1, 5]: 6.60 % Dose/1% Body Weight
RATIOS BONE/BLOOD [1, 5]: 10.5
RATIOS BONE/MARROW [1, 5]: 36
RATIOS BONE/MUSCLE [1, 5]: 44
% Dose/1% Body Weight, AVG BONE ([1]; 2 hours after I.V. injection, 9 rabbits): 7.21 % Dose/1% Body Weight
% Dose in Whole Organ, BLOOD [1, 6]: 2.72 % Dose
% Dose in Whole Organ, KIDNEY [1, 6]: 0.267 % Dose
% Dose in Whole Organ, LIVER [1, 6]: 0.576 % Dose
% Dose in Whole Organ, MARROW [1, 6]: 0.300 % Dose
% Dose in Whole Organ, MUSCLE [1, 6]: 4.80 % Dose
% Dose in Whole Organ, URINE [1, 6]: 26.2 % Dose
% Dose in Whole Organ, WHOLE FEMUR [1, 6]: 1.84 % Dose
% Dose in Whole Organ, WHOLE TIBIA [1, 6]: 1.57 % Dose
% Dose/1% Body Weight, BLOOD [1, 6]: 0.388 % Dose/1% Body Weight
% Dose/1% Body Weight, FEMUR [1, 6]: 7.87 % Dose/1% Body Weight
% Dose/1% Body Weight, KIDNEY [1, 6]: 0.488 % Dose/1% Body Weight
% Dose/1% Body Weight, LG INT [1, 6]: 0.421 % Dose/1% Body Weight
% Dose/1% Body Weight, LIVER [1, 6]: 0.168 % Dose/1% Body Weight
% Dose/1% Body Weight, MARROW [1, 6]: 0.137 % Dose/1% Body Weight
% Dose/1% Body Weight, MUSCLE [1, 6]: 0.125 % Dose/1% Body Weight
% Dose/1% Body Weight, PELVIS [1, 6]: 9.83 % Dose/1% Body Weight
% Dose/1% Body Weight, SM INT [1, 6]: 0.300 % Dose/1% Body Weight
% Dose/1% Body Weight, SPINE [1, 6]: 9.57 % Dose/1% Body Weight
% Dose/1% Body Weight, TIBIA [1, 6]: 7.64 % Dose/1% Body Weight
RATIOS BONE/BLOOD [1, 6]: 23.6
RATIOS BONE/MARROW [1, 6]: 66.9
RATIOS BONE/MUSCLE [1, 6]: 73.3
% Dose/1% Body Weight, AVG BONE ([1]; 4 hours after I.V. injection, 9 rabbits): 9.16 % Dose/1% Body Weight
% Dose in Whole Organ, BLOOD [1, 7]: 0.250 % Dose
% Dose in Whole Organ, KIDNEY [1, 7]: 0.022 % Dose
% Dose in Whole Organ, LIVER [1, 7]: 0.004 % Dose
% Dose in Whole Organ, MARROW [1, 7]: 0.070 % Dose
% Dose in Whole Organ, MUSCLE [1, 7]: 0.628 % Dose
% Dose in Whole Organ, WHOLE FEMUR [1, 7]: 1.55 % Dose
% Dose in Whole Organ, WHOLE TIBIA [1, 7]: 1.38 % Dose
% Dose/1% Body Weight, BLOOD [1, 7]: 0.331 % Dose/1% Body Weight
% Dose/1% Body Weight, FEMUR [1, 7]: 6.39 % Dose/1% Body Weight
% Dose/1% Body Weight, KIDNEY [1, 7]: 0.067 % Dose/1% Body Weight
% Dose/1% Body Weight, LG INT [1, 7]: 0.088 % Dose/1% Body Weight
% Dose/1% Body Weight, LIVER [1, 7]: 0.016 % Dose/1% Body Weight
% Dose/1% Body Weight, MARROW [1, 7]: 0.032 % Dose/1% Body Weight
% Dose/1% Body Weight, MUSCLE [1, 7]: 0.015 % Dose/1% Body Weight
% Dose/1% Body Weight, PELVIS [1, 7]: 8.13 % Dose/1% Body Weight
% Dose/1% Body Weight, SM INT [1, 7]: 0.042 % Dose/1% Body Weight
% Dose/1% Body Weight, SPINE [1, 7]: 6.96 % Dose/1% Body Weight
% Dose/1% Body Weight, TIBIA [1, 7]: 6.58 % Dose/1% Body Weight
RATIOS BONE/BLOOD [1, 7]: 20.9
RATIOS BONE/MARROW [1, 7]: 217
RATIOS BONE/MUSCLE [1, 7]: 462
% Dose/1% Body Weight, AVG BONE ([1]; 24 hours after I.V. injection, 7 rabbits): 6.93 % Dose/1% Body Weight
biological half life [2]: prolonged
